Structures can show the parent of a compound that is named as a salt.
Target: human MCH-1 receptor (Homo sapiens, UniProt Q99705)
Test: Binding assay for human melanin-concentrating hormone (MCH-1) receptor, radioligand displacement on CHO-K1 cell membranes
Conditions: not given

human MCH-1 receptor, sequence (Q99705 whole entry): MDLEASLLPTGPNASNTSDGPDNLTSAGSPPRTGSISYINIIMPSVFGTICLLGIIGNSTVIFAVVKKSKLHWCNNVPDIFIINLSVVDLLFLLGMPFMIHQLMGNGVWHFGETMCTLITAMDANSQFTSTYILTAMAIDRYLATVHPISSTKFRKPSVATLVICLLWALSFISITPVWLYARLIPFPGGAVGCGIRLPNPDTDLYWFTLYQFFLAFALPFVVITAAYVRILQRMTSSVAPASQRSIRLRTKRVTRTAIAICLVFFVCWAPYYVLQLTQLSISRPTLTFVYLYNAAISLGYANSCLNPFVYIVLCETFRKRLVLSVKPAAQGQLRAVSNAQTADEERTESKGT

| Ki | Compound |
| --- | --- |
| 0.009 µM | O=c1cc(OCc2ccc(F)cn2)ccn1-c1ccc2c3c(oc2c1)CCNCC3 [Example 39, 4-((5-Fluoropyridin-2-yl)methoxy)-1-(2,3,4,5-tetrahydro-1H-benzofuro[2,3-d]azepin-8-yl)pyridin-2(1H)-one hydrochloride] |
| 0.0034 µM | O=c1cc(OCc2ccccc2)ccn1-c1ccc2c3c(oc2c1)CCCNC3 [Example 40, 4-(Benzyloxy)-1-(2,3,4,5-tetrahydro-1H-benzofuro[3,2-c]azepin-8-yl)pyridin-2(1H)-one hydrochloride] |
| 0.0057 µM | O=c1cc(OCc2ccccc2)ccn1-c1ccc2c3c(oc2c1)CCNCC3 [Example 41, 4-(Benzyloxy)-1-(2,3,4,5-tetrahydro-1H-benzofuro[2,3-d]azepin-8-yl)pyridin-2(1H)-one hydrochloride] |
| 0.0047 µM | O=c1cc(OCc2ccc(Cl)cn2)ccn1-c1ccc2c3c(oc2c1)CCNCC3 [Example 42, 4-((5-Chloropyridin-2-yl)methoxy)-1-(2,3,4,5-tetrahydro-1H-benzofuro[2,3-d]azepin-8-yl)pyridin-2(1H)-one hydrochloride] |
| 0.0097 µM | O=c1cc(OCc2cccc(C(F)(F)F)n2)ccn1-c1ccc2c3c(oc2c1)CCCNC3 [Example 43, 1-(2,3,4,5-Tetrahydro-1H-benzofuro[3,2-c]azepin-8-yl)-4-((6-(trifluoromethyl)pyridin-2-yl)methoxy)pyridin-2(1H)-one hydrochloride] |
| 0.013 µM | O=c1cc(OCc2ccc(F)cn2)cnn1-c1ccc2c3c(oc2c1)CCCNC3 [Example 44, 5-((5-Fluoropyridin-2-yl)methoxy)-2-(2,3,4,5-tetrahydro-1H-benzofuro[3,2-c]azepin-8-yl)pyridazin-3(2H)-one hydrochloride] |
| 0.029 µM | O=c1cc(OCc2ccc(C(F)(F)F)nc2)ccn1-c1ccc2c3c(oc2c1)CCCNC3 [Example 45, 1-(2,3,4,5-Tetrahydro-1H-benzofuro[3,2-c]azepin-8-yl)-4-((6-(trifluoromethyl)pyridin-3-yl)methoxy)pyridin-2(1H)-one hydrochloride] |
| 0.047 µM | Cc1ccc(COc2ccn(-c3ccc4c5c(oc4c3)CCCNC5)c(=O)c2)cn1 [Example 46, 4-((6-Methylpyridin-3-yl)methoxy)-1-(2,3,4,5-tetrahydro-1H-benzofuro[3,2-c]azepin-8-yl)pyridin-2(1H)-one hydrochloride] |
| 0.055 µM | O=c1cc(OCc2ccc(C(F)(F)F)nc2)ccn1-c1ccc2c3c(oc2c1)CCNCC3 [Example 47, 1-(2,3,4,5-Tetrahydro-1H-benzofuro[2,3-d]azepin-8-yl)-4-((6-(trifluoromethyl)pyridin-3-yl)methoxy)pyridin-2(1H)-one hydrochloride] |
| 0.0045 µM | O=c1cc(-c2ccc(C(F)(F)F)cc2)ccn1-c1ccc2c3c(oc2c1)CCCNC3 [Example 48, 1-(2,3,4,5-Tetrahydro-1H-benzofuro[3,2-c]azepin-8-yl)-4-(4-(trifluoromethyl)phenyl)pyridin-2(1H)-one hydrochloride] |
| 0.022 µM | CN1CCCc2oc3cc(-n4ccc(OCc5cccc(C(F)(F)F)n5)cc4=O)ccc3c2C1 [Example 49, 1-(2-Methyl-2,3,4,5-tetrahydro-1H-benzofuro[3,2-c]azepin-8-yl)-4-((6-(trifluoromethyl)pyridin-2-yl)methoxy)pyridin-2(1H)-one hydrochloride] |
| 0.039 µM | CC(=O)N1CCc2c(sc3cc(-n4ccc(OCc5ccc(F)cn5)cc4=O)ccc23)C1 [Example 53, 1-(2-Acetyl-1,2,3,4-tetrahydrobenzothieno[2,3-c]pyridin-7-yl)-4-((5-fluoropyridin-2-yl)methoxy)pyridin-2(1H)-one] |
| 0.0027 µM | O=c1cc(OCc2ccc(F)cn2)ccn1-c1ccc2c3c(sc2c1)CCNC3 [Example 55, 4-((5-Fluoropyridin-2-yl)methoxy)-1-(1,2,3,4-tetrahydrobenzothieno[3,2-c]pyridin-7-yl)pyridin-2(1H)-one hydrochloride] |
| 0.0095 µM | CCN1CCc2c(sc3cc(-n4ccc(OCc5ccc(F)cn5)cc4=O)ccc23)C1 [Example 56, 1-(2-Ethyl-1,2,3,4-tetrahydrobenzothieno[2,3-c]pyridin-7-yl)-4-((5-fluoropyridin-2-yl)methoxy)pyridin-2(1H)-one hydrochloride] |
| 0.011 µM | CC(C)N1CCc2c(sc3cc(-n4ccc(OCc5ccc(F)cn5)cc4=O)ccc23)C1 [Example 57, 4-((5-Fluoropyridin-2-yl)methoxy)-1-(2-isopropyl-1,2,3,4-tetrahydrobenzothieno[2,3-c]pyridin-7-yl)pyridin-2(1H)-one hydrochloride] |
| 0.0062 µM | CN1CCc2c(sc3cc(-n4ccc(OCc5ccc(F)cn5)cc4=O)ccc23)C1 [Example 58, 4-((5-Fluoropyridin-2-yl)methoxy)-1-(2-methyl-1,2,3,4-tetrahydrobenzothieno[2,3-c]pyridin-7-yl)pyridin-2(1H)-one hydrochloride] |
| 0.118 µM | O=C1CN(CCc2ccc(F)cn2)CCN1c1ccc2c3c(sc2c1)CNCC3 [Example 60, 4-(2-(5-Fluoropyridin-2-yl)ethyl)-1-(1,2,3,4-tetrahydrobenzothieno[2,3-c]pyridin-7-yl)piperazin-2-one hydrochloride] |
| 0.034 µM | O=c1cc(OCc2ccc(F)cn2)cnn1-c1ccc2c3c(sc2c1)CNCC3 [Example 61, 5-((5-Fluoropyridin-2-yl)methoxy)-2-(1,2,3,4-tetrahydrobenzothieno[2,3-c]pyridin-7-yl)pyridazin-3(2H)-one] |
| 0.103 µM | Cc1ccc(COc2ccn(-c3ccc4c5c(sc4c3)CNCC5)c(=O)c2)cn1 [Example 62, 4-((6-Methylpyridin-3-yl)methoxy)-1-(1,2,3,4-tetrahydrobenzothieno[2,3-c]pyridin-7-yl)pyridin-2(1H)-one hydrochloride] |
| 0.033 µM | O=C1CN(CCc2ccc(Cl)cc2)CCN1c1ccc2c3c(sc2c1)CNCC3 [Example 63, 4-(4-Chlorophenethyl)-1-(1,2,3,4-tetrahydrobenzothieno[2,3-c]pyridin-7-yl)piperazin-2-one hydrochloride] |
| 0.048 µM | O=c1cc(OCc2ccc(C(F)(F)F)nc2)ccn1-c1ccc2c3c(sc2c1)CNCC3 [Example 64, 1-(1,2,3,4-Tetrahydrobenzothieno[2,3-c]pyridin-7-yl)-4-((6-(trifluoromethyl)pyridin-3-yl)methoxy)pyridin-2(1H)-one hydrochloride] |

| Compound | Ki |
| --- | --- |
| O=c1cc(OCc2ccc(F)cn2)ccn1-c1ccc2c3c(sc2c1)CN(CCF)CC3 [Example 59, 1-(2-(2-Fluoroethyl)-1,2,3,4-tetrahydrobenzothieno[2,3-c]pyridin-7-yl)-4-((5-fluoropyridin-2-yl)methoxy)pyridin-2(1H)-one hydrochloride] | 0.036 µM |
| O=c1cc(OCc2ccc(F)cn2)ccn1-c1ccc2c3c(oc2c1)CCN(CCF)C3 [Example 72, 1-(2-(2-Fluoroethyl)-1,2,3,4-tetrahydrobenzofuro[3,2-c]pyridin-7-yl)-4-((5-fluoropyridin-2-yl)methoxy)pyridin-2(1H)-one hydrochloride] | 0.029 µM |

Same assay, conditions: read-out: MCH1 % inhibition @ 1 uM

| inhibition at 1 µM | Compound |
| --- | --- |
| 60% | O=C1NCCc2c1sc1cc(-n3ccc(OCc4ccc(F)cn4)cc3=O)ccc21 [Example 54, 7-(4-((5-Fluoropyridin-2-yl)methoxy)-2-oxopyridin-1(2H)-yl)-3,4-dihydrobenzothieno[2,3-c]pyridin-1(2H)-one] |
